Entries after “also recorded” stand apart in the source; their conditions may differ. Like-named read-outs stand apart in the source and are kept apart here. Blank lines part the entries; values can stand above or below the compound they belong to.
Legend:
F508del-CFTR [1] = biological target: T1, F508del-CFTR (Homo sapiens, UniProt P13569, DEL508-508); test: Membrane potential optical (FLIPR) assay for F508del-CFTR modulators; type: cell-based; design: expressed in transfected cells; settings: read-out: CFTRdF508 EC50
T1 sequence (P13569 with tags, fused parts or gaps DEL508-508): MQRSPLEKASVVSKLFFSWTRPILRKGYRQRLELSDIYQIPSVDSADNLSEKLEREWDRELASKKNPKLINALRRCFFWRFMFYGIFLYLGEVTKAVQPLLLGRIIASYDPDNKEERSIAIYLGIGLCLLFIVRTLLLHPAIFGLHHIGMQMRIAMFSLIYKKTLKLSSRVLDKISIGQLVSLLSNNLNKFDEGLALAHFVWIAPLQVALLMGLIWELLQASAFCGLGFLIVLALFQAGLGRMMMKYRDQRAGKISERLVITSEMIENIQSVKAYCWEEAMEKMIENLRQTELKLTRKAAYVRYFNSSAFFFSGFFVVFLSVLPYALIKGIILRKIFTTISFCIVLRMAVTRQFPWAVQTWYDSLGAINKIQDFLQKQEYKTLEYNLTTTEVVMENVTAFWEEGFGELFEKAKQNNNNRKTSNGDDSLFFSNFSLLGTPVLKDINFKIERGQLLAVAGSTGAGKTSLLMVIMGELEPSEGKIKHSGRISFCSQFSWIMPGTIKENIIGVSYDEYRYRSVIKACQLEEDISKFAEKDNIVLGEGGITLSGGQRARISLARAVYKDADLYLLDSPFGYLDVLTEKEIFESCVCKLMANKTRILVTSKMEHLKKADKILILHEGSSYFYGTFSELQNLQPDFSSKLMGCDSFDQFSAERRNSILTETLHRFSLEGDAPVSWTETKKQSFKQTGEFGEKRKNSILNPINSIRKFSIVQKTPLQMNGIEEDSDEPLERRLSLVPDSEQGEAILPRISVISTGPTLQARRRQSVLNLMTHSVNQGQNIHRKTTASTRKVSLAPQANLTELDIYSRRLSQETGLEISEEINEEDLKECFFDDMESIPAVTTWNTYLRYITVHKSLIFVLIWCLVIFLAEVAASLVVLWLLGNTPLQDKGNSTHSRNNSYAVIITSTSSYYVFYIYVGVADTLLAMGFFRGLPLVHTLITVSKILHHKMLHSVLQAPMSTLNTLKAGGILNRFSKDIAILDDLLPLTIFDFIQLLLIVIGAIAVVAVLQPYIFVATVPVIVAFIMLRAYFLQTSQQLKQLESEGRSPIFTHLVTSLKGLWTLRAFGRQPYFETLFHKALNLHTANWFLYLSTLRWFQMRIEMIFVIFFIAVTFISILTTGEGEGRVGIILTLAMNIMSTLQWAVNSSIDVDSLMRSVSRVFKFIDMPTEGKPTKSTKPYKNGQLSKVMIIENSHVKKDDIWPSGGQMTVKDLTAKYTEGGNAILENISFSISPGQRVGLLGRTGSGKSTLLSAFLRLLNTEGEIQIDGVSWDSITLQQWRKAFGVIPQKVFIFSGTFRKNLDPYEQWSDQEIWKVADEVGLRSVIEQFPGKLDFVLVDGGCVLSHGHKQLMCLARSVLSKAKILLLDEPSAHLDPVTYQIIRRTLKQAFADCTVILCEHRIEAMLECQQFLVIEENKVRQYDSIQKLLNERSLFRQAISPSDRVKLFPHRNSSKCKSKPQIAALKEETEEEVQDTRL
Description: Membrane Potential Optical Methods for Assaying Properties of F508del-CFIR Modulators
The assay utilizes fluorescent voltage sensing dyes to measure changes in membrane potential using a fluorescent plate reader (e.g., FLIPR III, Molecular Devices, Inc.) as a readout for increase in functional F508del in NIH 3T3 cells.
5A-A1. Identification of F508del-CTTR Modulators
To identify modulators of F508del, a fluorescence based HTS assay format was developed. This HTS assay utilizes fluorescent voltage sensing dyes to measure changes in membrane potential on the FLIPR III as a measurement for increase in gating (conductance) of F508del NIH 3T3 cells.
Bath Solution #1: (in mM) NaCl 160, KCl 4.5, CaCl2 2, MgCl2 1, HEPES 10, pH 7.4 with NaOH, Glucose 10.
Chloride-free bath solution: Chloride salts in Bath Solution #1 (above) are substituted with gluconate salts.
NIH3T3 mouse fibroblasts stably expressing F508del are used for optical measurements of membrane potential. The cells are maintained at 37° C. in 5% CO2 and 90% humidity in Dulbecco's modified Eagle's medium supplemented with 2 mM glutamine, 10% fetal bovine serum, 1×NEAR, β-ME, 1×pen/strep, and 25 mM HEPES in 175 cm^2 culture flasks, For all optical assays, the cells were seeded at 12,000 cells/well in 384-well matrigel-coated plates and cultured for 18-24 hrs at 37° C. for the potentiator assay. For the correction assays, the cells are cultured at 37° C. with and without compounds for 18-24 hours.

Rat IV and PO PK studies = type: in vivo; settings: male Sprague-Dawley rats, oral 3 mg/kg
Description: 5C. Experimental Protocol for Rat IV and PO PK Studies
The tested compound was administered to male Sprague-Dawley rats as a single nominal intravenous dose of 3.0 mg/kg as a solution in 10% NMP, 10% solutol, 15% EtOH, 35% PEG400 and 30% D5W. The tested compound was also administered to male Sprague-Dawley rats at single nominal oral dose of 3 mg/kg as a solution in 5% NMP, 30% PEG400, 10% TPGS, 5% PVP-K30 at 5 mL/kg dose volume. Analyses of plasma and dose preparations were performed using LC/MS/MS.
Plasma concentration-time profiles of the tested compound in Sprague-Dawley rats at scheduled (nominal) sampling times were analyzed by noncompartmental pharmacokinetic methods using PK function within Watson LIMS software, Version 7.4.2 (Thermo Scientific Inc, Waltham, Mass.). AUC values were calculated using the linear trapezoidal rule.

F508del-CFTR [2] = biological target: T1, F508del-CFTR; test: Ussing chamber chloride transport in HBE cells; type: cell-based; design: CF-HBE were isolated from patients homozygous for F508del; endogenous in cells; host or cells: primary human bronchial epithelial (HBE) cells, F508del/F508del
Description: Ussing chamber experiments were performed on polarized airway epithelial cells expressing F508del to further characterize the F508del modulators identified in the optical assays. Non-CF and CF airway epithelia were isolated from bronchial tissue, cultured as previously described (Galietta, L. J. V., Lantero, S., Gazzolo, A., Sacco, O., Romano, L., Rossi, G. A., & Zegarra-Moran, O. (1998) In Vitro Cell Dev. Biol. 34, 478-481), and plated onto Costar® Snapwell™ filters that were precoated with NIH3T3-conditioned media. After four days the apical media was removed and the cells were grown at an air liquid interface for >14 days prior to use.
HBE grown on Costar® Snnapwell™ cell culture inserts were mounted in an Ussing chamber (Physiologic Instruments, Inc., San Diego, Calif.), and the transepithelial resistance and short-circuit current in the presence of a basolateral to apical […] gradient (ISC) were measured using a voltage-clamp system (Department of Bioengineering, University of Iowa, Iowa). Briefly, HBE were examined under voltage-clamp recording conditions (Vhold=0 mV) at 37° C. The basolateral solution contained (in mM) 145 NaCl, 0.83 K2HPO4, 3.3 KH2PO4, 1.2 MgCl2, 1.2 CaCl2, 10 Glucose, 10 HEPES (pH adjusted to 7.35 with NaOH) and the apical solution contained (in mM) 145 NaGluconate, 1.2 MgCl2, 1.2 CaCl2, 10 glucose, 10 HEPES (pH adjusted to 7.35 with NaOH).
5A-A2. […]

F508del-CFTR [3] = biological target: T1, F508del-CFTR; test: F508del-CFTR processing and trafficking in vitro (170 to 180 kDa band); type: cell-based; design: CF-HBE were isolated from patients homozygous for F508del; endogenous in cells; host or cells: primary human bronchial epithelial (HBE) cells, F508del/F508del
Description: The CFTR protein delivered to the cell surface by Compound 1 alone or in combination with Compound II (Compound 1/Compound II) was potentiated by Compound III.
Incubation of F508del/F508del-HBE cells for 16 to 24 hours with 1 μM Compound 1 alone or in combination with […].

[4] = biological target: T2, Human Serum Albumin (HSA) (Homo sapiens, UniProt P02768); test: Chromatographic determination of Human Serum Albumin (HSA) binding; type: in vitro ADME; settings: ChiralPak HSA column retention time converted to % HSA
T2 construct: purchased Sigma Aldrich 58469AST
T2 sequence (P02768 25-609): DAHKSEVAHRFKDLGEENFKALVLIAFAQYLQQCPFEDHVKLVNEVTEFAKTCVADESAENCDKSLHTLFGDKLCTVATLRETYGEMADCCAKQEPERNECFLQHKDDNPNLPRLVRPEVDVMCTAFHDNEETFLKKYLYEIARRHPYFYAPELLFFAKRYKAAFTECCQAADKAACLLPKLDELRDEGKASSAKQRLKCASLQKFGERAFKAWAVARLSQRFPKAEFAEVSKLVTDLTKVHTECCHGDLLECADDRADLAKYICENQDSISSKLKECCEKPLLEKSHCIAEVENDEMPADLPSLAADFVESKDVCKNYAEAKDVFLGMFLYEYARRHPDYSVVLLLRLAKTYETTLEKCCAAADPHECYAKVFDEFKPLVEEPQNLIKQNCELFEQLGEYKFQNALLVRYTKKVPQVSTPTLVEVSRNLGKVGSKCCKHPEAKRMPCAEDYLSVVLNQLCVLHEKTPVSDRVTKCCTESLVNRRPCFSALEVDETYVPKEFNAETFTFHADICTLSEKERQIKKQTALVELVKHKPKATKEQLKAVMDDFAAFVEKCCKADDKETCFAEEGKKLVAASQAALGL
Description: 5B. Chromatographic Determination of Human Serum Albumin (HSA) Assay
Chromatographic determination of Human Serum Albumin (HSA) values was performed on a UPLC-MS system using a ChiralPak® HSA column (p/n: 58469AST) from Sigma Aldrich. Mobile phase A consisted of 50 mM ammonium acetate buffer in water adjusted to pH=7.4, and mobile phase B was 2-propanol. The column compartment was kept at constant temperature of 30° C. Determination of retention time on the HSA column was performed by injecting […] of 0.5 mM of compound (in DMSO) using a linear gradient from 0%-30% B in 2.5 minutes, followed by a hold at 30%B for 2 minutes, and the final equilibration step from 30%-0% B in 1.5 minutes, for a total run time of 6 minutes. Flow rate was kept constant throughout the gradient and set to 1.8 mL/min. Compound retention time on the HSA column was converted to % HSA values according to a previously published protocol (Valko, et. al, 2003) correlating column retention times to standard plasma protein binding (PPB) values obtained from dialysis experiments. HSA data for certain compounds are summarized below in Table 8 below.
Valko, K., Nunhuck, S., Bevan, C., Abraham, M. H., Reynolds, D. P. Fast Gradient HPLC Method to Determine Compounds Binding to Human Serwn Albumin. Relationships with Octanol/Water and. Immobilized Artificial Membrane Lipophilicity. J. of Pharm. Sci. 2003, 92, 2236-2248.

[5] = Table 6, F508del NIH 3T3 cells, assay of Example 5A-A1

Compound: CC1CC(C)(C)N2c3nc(-n4ccc(OCCC5(C(F)(F)F)CC5)n4)ccc3C(=O)OC12 (stereo not shown)
EC50 (F508del-CFTR [1]; Table 7, Compound 1 and its metabolites): > 30000 nM

Compound: C[C@@H]1CN(c2nc(-n3ccc(OCCC4(C(F)(F)F)CC4)n3)ccc2C(=O)NS(=O)(=O)c2ccccc2)C(C)(C)C1 [Compound 1, N-(benzenesulfonyl)-6-[3-[2-[1-(trifluoromethyl)cyclopropyl]ethoxy]pyrazol-1-yl]-2-[(4S)-2,2,4-trimethylpyrrolidin-1-yl]pyridine-3-carboxamide]
Rat po % F (Rat IV and PO PK studies): 63% | chloride transport (F508del-CFTR [2]; Ussing Chamber, F508del/F508del-HBE cells, listed as Compound I): enhanced chloride transport; also recorded: additive to the effect of Compound II | steady-state levels, fold of untreated levels (F508del-CFTR [3]; F508del/F508del-HBE cells, 16 to 24 hours, 1 μM Compound 1 alone): 6.5 fold | processing and trafficking of F508del-CFTR (F508del-CFTR [3]; in vitro): CFTR corrector

Compound: C[C@@H]1CN(c2nc(-n3ccc(OCCC4(C(F)(F)F)CC4)n3)ccc2C(=O)NS(=O)(=O)c2cccc(F)c2)C(C)(C)C1 [Compound 5]
Rat po % F (Rat IV and PO PK studies): 50%

Compound: C[C@@H]1CN(c2nc(-n3ccc(OCC4(C(F)(F)F)CC4)n3)ccc2C(=O)NS(=N)(=O)c2ccccc2)C(C)(C)C1 (mixture of isomers)
HSA binding [4]: 98.%

Compound: C[C@@H]1CN(c2nc(-n3ccc(OCC(C)(C)C)n3)ccc2C(=O)NS(=O)(=O)c2cccnc2N)C(C)(C)C1 [Comp. A, reference compound]
Rat po % F (Rat IV and PO PK studies): 28%

Compound: C[C@@H]1CN(c2nc(-n3ccc(OCC4(C(F)(F)F)CC4)n3)ccc2C(=O)NS(=O)(=O)c2ccccc2)C(C)(C)C1 [Compound 14, N-(Benzeuesulfonyl)-6-[3-[[1-(trifluoromethyl)cyclopropyl]methoxy]pyrazol-1-yl]-2-[(4S)-2,2,4-trimethylpyrrolidin-1-yl]pyridine-3-carboxamide]
Rat po % F (Rat IV and PO PK studies): 58%

Compound: C[C@@H]1CN(c2nc(-n3ccc(OCC4(C(F)(F)F)CCC4)n3)ccc2C(=O)NS(=O)(=O)c2ccccc2)C(C)(C)C1 [Compound 10, N-(Benzenesulfonyl)-6-[3-[[1-(trifluoromethyl)cyclobutyl]methoxy]pyrazol-1-yl]-2-[(4S)-2,2,4-trimethylpyrrolidin-1-yl]pyridine-3-carboxamide]
Rat po % F (Rat IV and PO PK studies): 41%

Further lines, results first:

EC50 (F508del-CFTR [1]; [5]): 100 to 1000 nM
Compound: C[C@@H]1CN(c2nc(-n3ccc(OCC4(C(F)(F)F)CC4)n3)ccc2C(=O)NS(=O)(=O)c2ccc(F)cc2)C(C)(C)C1 [Compound 52, N-(4-fluorophenyl)sulfonyl-6-[3-[[1-(trifluoromethyl)cyclopropyl]methoxy]pyrazol-1-yl]-2-[(4S)-2,2,4-trimethylpyrrolidin-1-yl]pyridine-3-carboxamide]

EC50 (F508del-CFTR [1]; [5]): < 100 nM
Compound: C[C@@H]1CN(c2nc(-n3ccc(OCC4(C(F)(F)F)CC4)n3)ccc2C(=O)NS(=O)(=O)c2ccccc2C#N)C(C)(C)C1 [Compound 26, N-(2-Cyanophenyl)sulfonyl-6-[3-[[1-(trifluoromethyl)cyclopropyl]methoxy]pyrazol-1-yl]-2-[(4S)-2,2,4-trimethylpyrrolidin-1-yl]pyridine-3-carboxamide]

potentiation of F508del-CFTR delivered to the cell surface (F508del-CFTR [2]; CFTR delivered by Compound 1 alone or in combination with Compound II): potentiated
Compound: CC(C)(C)c1cc(C(C)(C)C)c(NC(=O)c2c[nH]c3ccccc3c2=O)cc1O [Compound III, N-(5-hydroxy-2,4-di-tert-butyl-phenyl)-4-oxo-1H-quinoline-3-carboxamide, reference compound]

— US20220306606A1, “MODULATOR OF CYSTIC FIBROSIS TRANSMEMBRANE CONDUCTANCE REGULATOR, PHARMACEUTICAL COMPOSITIONS, METHODS OF TREATMENT, AND PROCESS FOR MAKING THE MODULATOR” (Vertex Pharmaceuticals Incorporated, priority 2016, published 2022)
